Measured values taken from BindingDB's records for patent US20250129104 (Biosplice Therapeutics, 2025).

Molecular target: Dual specificity tyrosine-phosphorylation-regulated kinase 1A (Homo sapiens, UniProt Q13627)
Assay: DYRK1A Kinase Assay
Protocol: Each compound was dissolved in DMSO as a 10 mM stock and used to prepare compound source plates. Serial dilution (1:3, 11-point dose-response curves from 10 μM to 0.00016 μM) and compound transfer was performed using the ECHO 550 (Labcyte, Sunnyvale, CA) into 1536-well black-walled round bottom plates (Corning).The DYRK1A kinase assay was run using the Ser/Thr 18 peptide Z-lyte assay kit according to manufacturer's instructions (Life Technologies—a Division of Thermo-Fisher). This is a non-radioactive assay using fluorescence resonance energy transfer (FRET) between coumarin and fluorescein to detect kinase activity which is represented as a ratio of coumarin emission/fluorescein emission.Briefly, recombinant DYRK1A kinase, ATP and Ser/Thr peptide 18 were prepared in 1× Kinase buffer to final concentrations of 0.25 μg/mL, 15 μM, and 4 μM respectively. The mixture was allowed to incubate with the representative compounds for one hour at room temperature. All reactions were performed in duplicate. Unphosphorylated (“0% Control”) and phosphorylated (“100% control”) forms of Ser/Thr 18 served as control reactions. Additionally, an 11-point dose-response curve of Staurosporine (1 uM top) was run to serve as a positive compound control.After incubation, Development Reagent A was diluted in Development Buffer then added to the reaction and allowed to further incubate for one hour at room temperature. The plate was read at Ex 400 Em 455 to detect the coumarin signal and Ex 400 Em 520 to measure the signal (EnVision Multilabel Plate Reader, PerkinElmer).

| EC50 [nM] | SMILES |
| --- | --- |
| 35.2 | C[C@]1(O)CC[C@H](Nc2ncc3c(-c4ccn5nccc5c4)c[nH]c3n2)CC1 [US20250129104, Compound 2238] |
| 5440 | COc1nc(N[C@H](C)C(F)(F)F)c2c(-c3ccc4nc(C)n(CC(F)F)c4n3)c[nH]c2n1 [US20250129104, Compound 2817] |
| 1.4 | COc1nc(N[C@H]2CC[C@@](C)(O)CC2)nc2[nH]cc(-c3ccc4ncnn4c3)c12 [US20250129104, Compound 3053] |
